Data: PubChem BioAssay AID1259407 (Chemical Carcinogenesis Research Information System (CCRIS), 2018)
The source made the active and inactive calls. How the calls were made is not given here.

Test system: CCRIS mutagenicity, Ames/micronucleus/aberration tests
Assay: CCRIS mutagenicity studies
[1] = Test System: AMES SALMONELLA TYPHIMURIUM, Strain/Indicator: TA97, Metabolic Activation: NONE, Method: PREINCUBATION
[2] = Test System: AMES SALMONELLA TYPHIMURIUM, Strain/Indicator: TA98, Metabolic Activation: NONE, Method: PREINCUBATION
[3] = Test System: AMES SALMONELLA TYPHIMURIUM, Strain/Indicator: TA100, Metabolic Activation: NONE, Method: PREINCUBATION
[4] = Test System: AMES SALMONELLA TYPHIMURIUM, Strain/Indicator: TA1535, Metabolic Activation: NONE, Method: PREINCUBATION

Measured: mutagenic call

CNC(=O)c1ccccc1
inactive: Test System: AMES SALMONELLA TYPHIMURIUM, Strain/Indicator: TA97, Metabolic Activation: HAMSTER, LIVER, S-9, AROCLOR 1254 (10 OR 30%), Method: PREINCUBATION inactive; negative | [1] inactive; negative | Test System: AMES SALMONELLA TYPHIMURIUM, Strain/Indicator: TA97, Metabolic Activation: RAT, LIVER, S-9, AROCLOR 1254 (10 OR 30%), Method: PREINCUBATION inactive; negative | Test System: AMES SALMONELLA TYPHIMURIUM, Strain/Indicator: TA98, Metabolic Activation: HAMSTER, LIVER, S-9, AROCLOR 1254 (10 OR 30%), Method: PREINCUBATION inactive; negative | [2] inactive; negative | Test System: AMES SALMONELLA TYPHIMURIUM, Strain/Indicator: TA98, Metabolic Activation: RAT, LIVER, S-9, AROCLOR 1254 (10 OR 30%), Method: PREINCUBATION inactive; negative | Test System: AMES SALMONELLA TYPHIMURIUM, Strain/Indicator: TA100, Metabolic Activation: HAMSTER, LIVER, S-9, AROCLOR 1254 (10 OR 30%), Method: PREINCUBATION inactive; negative | [3] inactive; negative | Test System: AMES SALMONELLA TYPHIMURIUM, Strain/Indicator: TA100, Metabolic Activation: RAT, LIVER, S-9, AROCLOR 1254 (10 OR 30%), Method: PREINCUBATION inactive; negative | Test System: AMES SALMONELLA TYPHIMURIUM, Strain/Indicator: TA1535, Metabolic Activation: HAMSTER, LIVER, S-9, AROCLOR 1254 (10 OR 30%), Method: PREINCUBATION inactive; negative | [4] inactive; negative | Test System: AMES SALMONELLA TYPHIMURIUM, Strain/Indicator: TA1535, Metabolic Activation: RAT, LIVER, S-9, AROCLOR 1254 (10 OR 30%), Method: PREINCUBATION inactive; negative

Oc1cc(Cl)c(Cl)c(Cl)c1
inactive: End Point: IN VITRO CHROMOSOMAL ABERRATIONS, Test System: CHINESE HAMSTER LUNG CELLS (CHL), Metabolic Activation: RAT, LIVER, S-9, KC-400 inactive; negative; authors describe results as equivocal | End Point: IN VITRO CHROMOSOMAL ABERRATIONS, Test System: CHINESE HAMSTER OVARY CELLS (CHO), Metabolic Activation: NONE inactive; negative | End Point: IN VITRO CHROMOSOMAL ABERRATIONS, Test System: CHINESE HAMSTER OVARY CELLS (CHO), Metabolic Activation: RAT, LIVER, S-9, AROCLOR 1254 inactive; negative | Test System: AMES SALMONELLA TYPHIMURIUM, Strain/Indicator: TA97, Metabolic Activation: HAMSTER, LIVER, S-9, AROCLOR 1254 (10%), Method: PREINCUBATION inactive; negative | Test System: AMES SALMONELLA TYPHIMURIUM, Strain/Indicator: TA97, Metabolic Activation: HAMSTER, LIVER, S-9, AROCLOR 1254 (30%), Method: PREINCUBATION inactive; negative | [1] inactive; negative | Test System: AMES SALMONELLA TYPHIMURIUM, Strain/Indicator: TA97, Metabolic Activation: RAT, LIVER, S-9, AROCLOR 1254 (10%), Method: PREINCUBATION inactive; negative | Test System: AMES SALMONELLA TYPHIMURIUM, Strain/Indicator: TA97, Metabolic Activation: RAT, LIVER, S-9, AROCLOR 1254 (30%), Method: PREINCUBATION inactive; negative | Test System: AMES SALMONELLA TYPHIMURIUM, Strain/Indicator: TA98, Metabolic Activation: HAMSTER, LIVER, S-9, AROCLOR 1254 (10%), Method: PREINCUBATION inactive; negative | Test System: AMES SALMONELLA TYPHIMURIUM, Strain/Indicator: TA98, Metabolic Activation: HAMSTER, LIVER, S-9, AROCLOR 1254 (30%), Method: PREINCUBATION inactive; negative | [2] inactive; negative | Test System: AMES SALMONELLA TYPHIMURIUM, Strain/Indicator: TA98, Metabolic Activation: RAT, LIVER, S-9, AROCLOR 1254 (10%), Method: PREINCUBATION inactive; negative | Test System: AMES SALMONELLA TYPHIMURIUM, Strain/Indicator: TA98, Metabolic Activation: RAT, LIVER, S-9, AROCLOR 1254 (30%), Method: PREINCUBATION inactive; negative | Test System: AMES SALMONELLA TYPHIMURIUM, Strain/Indicator: TA100, Metabolic Activation: HAMSTER, LIVER, S-9, AROCLOR 1254 (10%), Method: PREINCUBATION inactive; negative | Test System: AMES SALMONELLA TYPHIMURIUM, Strain/Indicator: TA100, Metabolic Activation: HAMSTER, LIVER, S-9, AROCLOR 1254 (30%), Method: PREINCUBATION inactive; negative | [3] inactive; negative | Test System: AMES SALMONELLA TYPHIMURIUM, Strain/Indicator: TA100, Metabolic Activation: RAT, LIVER, S-9, AROCLOR 1254 (10%), Method: PREINCUBATION inactive; negative | Test System: AMES SALMONELLA TYPHIMURIUM, Strain/Indicator: TA100, Metabolic Activation: RAT, LIVER, S-9, AROCLOR 1254 (30%), Method: PREINCUBATION inactive; negative | Test System: AMES SALMONELLA TYPHIMURIUM, Strain/Indicator: TA1535, Metabolic Activation: HAMSTER, LIVER, S-9, AROCLOR 1254 (10%), Method: PREINCUBATION inactive; negative | Test System: AMES SALMONELLA TYPHIMURIUM, Strain/Indicator: TA1535, Metabolic Activation: HAMSTER, LIVER, S-9, AROCLOR 1254 (30%), Method: PREINCUBATION inactive; negative | [4] inactive; negative | Test System: AMES SALMONELLA TYPHIMURIUM, Strain/Indicator: TA1535, Metabolic Activation: RAT, LIVER, S-9, AROCLOR 1254 (10%), Method: PREINCUBATION inactive; negative | Test System: AMES SALMONELLA TYPHIMURIUM, Strain/Indicator: TA1535, Metabolic Activation: RAT, LIVER, S-9, AROCLOR 1254 (30%), Method: PREINCUBATION inactive; negative | Test System: AMES SALMONELLA TYPHIMURIUM, Strain/Indicator: TA1537, Metabolic Activation: HAMSTER, LIVER, S-9, AROCLOR 1254 (30%), Method: PREINCUBATION inactive; negative | Test System: AMES SALMONELLA TYPHIMURIUM, Strain/Indicator: TA1537, Metabolic Activation: NONE, Method: PREINCUBATION inactive; negative | Test System: AMES SALMONELLA TYPHIMURIUM, Strain/Indicator: TA1537, Metabolic Activation: RAT, LIVER, S-9, AROCLOR 1254 (30%), Method: PREINCUBATION inactive; negative
